# Results: US6121330A, “5-Hydroxyalkyl substituted phenyls and their use in medicaments for the treatment of arteriosclerosis and hyperlipoproteinaemia” (Bayer Aktiengesellschaft, priority 1997, dated 2000)
# Experiments:
# [1] = target: T1, cholesterol ester transfer protein (CETP) (Homo sapiens, UniProt P11597); assay: CETP inhibition testing (transfer of 3H-cholesterol ester from human HD lipoproteins to biotinylated LD lipoproteins); format: biochemical; settings: CETP partially purified from human plasma; 3H-cholesterol ester transfer HDL to biotin-LDL, 37° C., 18 h
# T1 construct: CETP is obtained from human plasma in partially purified form by differential centrifugation and column chromatography; from tissue; host or cells: human plasma
# T1 sequence (P11597 18-493): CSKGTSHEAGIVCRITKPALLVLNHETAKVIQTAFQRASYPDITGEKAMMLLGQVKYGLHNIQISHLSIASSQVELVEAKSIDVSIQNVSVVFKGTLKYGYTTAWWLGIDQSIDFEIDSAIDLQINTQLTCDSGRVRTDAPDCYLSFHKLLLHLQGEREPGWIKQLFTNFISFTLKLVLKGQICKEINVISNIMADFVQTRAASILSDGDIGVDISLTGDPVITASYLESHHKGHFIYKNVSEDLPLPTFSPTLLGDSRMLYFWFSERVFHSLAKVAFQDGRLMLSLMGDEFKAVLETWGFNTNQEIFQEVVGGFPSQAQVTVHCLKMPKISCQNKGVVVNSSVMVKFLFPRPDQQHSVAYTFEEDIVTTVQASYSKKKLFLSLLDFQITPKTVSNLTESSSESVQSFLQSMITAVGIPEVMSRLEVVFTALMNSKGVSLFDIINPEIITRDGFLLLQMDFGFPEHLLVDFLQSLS
# Description: CETP is obtained from human plasma in partially purified form by differential centrifugation and column chromatography and used for the test. To this end, human plasma is adjusted to a density of 1.21 g per ml using NaBr and centrifuged at 4° C. for 18 h at 50,000 rpm. The bottom fraction (d>1.21 g/ml) is applied to a Sephadex®phenyl-sepharose 4B (Pharmacia) column, washed with 0.15 M NaCl/0.001 M trisHCl pH 7.4 and then eluted with distilled water. The CETP-active fractions are pooled, dialyzed against 50 mM Na acetate pH 4.5 and applied to a CM-Sepharose® (Pharmacia) column. The column is then eluted using a linear gradient (0-1 M NaCl). The pooled CETP fractions are dialyzed against 10 mM tris HCl pH 7.4 and then further purified by chromatography on a Mono Q® column (Pharmacia).
# Obtainment of Radiolabelled HDL
# 50 ml of fresh human EDTA plasma is adjusted to a density of 1.12 using NaBr and centrifuged at 50,000 rpm for 18 h at 4° C. in a Ty 65 rotor. The upper phase is used to obtain cold LDL. The lower phase is dialyzed against 3×4 l of PDB buffer (10 mM tris/HCl pH 7.4, […], 1 mM EDTA, 0.02% NaN3). 20 μl of 3H-cholesterol (Dupont NET-725; 1 μC/μl dissolved in ethanol!) are then added per 10 ml of retentate volume and the mixture is incubated under N2 at 37° C. for 72 h. […]
# To test the CETP activity, the transfer of ^3 H-cholesterol ester from human HD lipoproteins to biotinylated LD lipoproteins is measured.
# The reaction is ended by addition of streptavidin-SPA® beads (Amersham) and the transferred radioactivity is determined directly in a liquid scintillation counter.
# In the test mixture, 10 μl of HDL-^3 H-cholesterol ester (~50,000 cpm) are incubated at 37° C. for 18 h with 10 μl of biotin-LDL (Amersham) in 50 mM Hepes/0.15 M NaCl/0.1% bovine serum albumin/0.05% NaN3 pH 7.4 with 10 μl of CETP (1 mg/ml) and 3 μl of solution of the substance to be tested dissolved (in 10% DMSO/1% RSA). 200 μl of the SPA-streptavidin bead solution (TRKQ 7005) are then added, the mixture is incubated further for 1 h with shaking and then measured in the scintillation counter. […]
# HDL cholesterol = assay: HDL rise in in vivo experiments (oral administration); design: species or system Syrian golden hamster; settings: oral (stomach tube), 2 × 30 mg/kg/d
# Description: In Vivo Activity of the Compounds According to the Invention
# In experiments to determine the oral action on lipoproteins and triglycerides, test substance dissolved in DMSO and 0.5% Tylose suspended by means of a stomach tube are administered orally to Syrian golder hamsters from in-house breeding. To determine the CETP activity, blood (about 250 μl) is taken by retroorbital puncture before the start of the experiment. The test substances are then administered orally by means of a stomach tube. The control animals receive identical volumes of solvent without test substance. […]
# Clotting is ended by incubation at 4° C. overnight, then centrifugation at 6000×g is carried out for 10 minutes. In the serum thus obtained, the content of cholesterol and triglycerides is determined with the aid of modified commercially available enzyme tests (cholesterol enzymatic 14366 Merck, triglycerides 14364 Merck). […]
# 100 μl of serum dilution are mixed with 100 μl of […] in 96-hole plates and incubated at room temperature for 10 minutes. The optical density is then determined at a wavelength of 492 nm using an automatic plate-reading apparatus. The triglyceride or cholesterol concentration contained in the samples is determined with the aid of a standard curve measured in parallel. […]
IC50 [1] [nM],SMILES,% HDL rise (HDL cholesterol) [%]
90,OCc1c(-c2ccc(F)cc2)cc(C2CCCC2)c(C(F)c2ccc(C(F)(F)F)cc2)c1-c1ccc(F)cc1 (stereo not shown) [Example 1],
100,CC(C)c1cc(-c2ccc(F)cc2)c(CO)c(-c2ccc(F)cc2)c1C(F)c1ccc(C(F)(F)F)cc1 (stereo not shown) [Example 3],21
4000,CC(C)c1cc(-c2ccc(F)cc2)c(CO)c(-c2ccc(F)cc2)c1C(=O)c1ccc(C(F)(F)F)cc1 [Example 4],
